Experimental data published in patent US6924314B2, “Compounds for the treatment of metabolic disorders” (Wellstat Therapeutics Corporation, priority 2001, dated 2005).

Tests used:
[1] = test system: high fat-fed C57Bl/6J mice; assay: Circulating triglycerides, free fatty acids, insulin and leptin in high fat-fed C57Bl/6J mice; type: in vivo; conditions: for Free Fatty Acids / Triglycerides: after 2 weeks of drug treatments
From the text: The high fat-fed mouse is a model for the hypertriglyceridemia and high circulating fatty acid levels, and the insulin and leptin resistance that are found in people at risk for and with obesity, diabetes, cardiovascular disease and other disorders. Male C57Bl/6J mice, approximately 8 weeks of age, were randomly assigned into groups of 6 animals. […] Mice were fed a high-fat diet (diet number D12451, containing 45% of calories as fat (Research Diets, New Brunswick, N.J.)) for 6 weeks. […]

[2] = test system: Zucker Diabetic Fatty (ZDF) rats; assay: Attenuation of cataractogenesis in Zucker Diabetic Fatty (ZDF) rats; type: in vivo; conditions: 100 mg/kg daily oral, 10 weeks
From the text: Cataracts are one of the leading causes of progressive vision decline and blindness associated with ageing and diabetes, and the Zucker diabetic fatty (ZDF) model has many similarities with human cataractogenesis, including biochemical changes and oxidative stress in the lens. These rats, however, undergo cataractogenesis typically between 14-16 weeks of age.
Male ZDF rats and their aged-match Zucker lean (ZL) counterparts (fa/+ or +/+) were obtained from Genetic Models, Inc. (Indianapolis, Ind.) aged 12 weeks and acclimatized for 1 week prior to study. […] Treatment cohorts were given a daily oral dose of vehicle and 100 mg/kg of BI or BH for 10 weeks. […] At the end of the treatment period 100 μl of venous blood was collected (usually 10:00 A.M.) in a heparinized tube from the tail vein for serum chemistry analysis (Anilytics, Inc., Gaithersburg, Md.). […] Plasma insulin was measured by an electrochemiluminescent immunoassay, ECL (Origen Analyzer, Igen, Inc., Gaithersburg, Md.). The animals were sacrificed and tissues and/or organs (lens and liver) were extirpated, weighed (wet weight) and processed for biochemical analyses. Malondialdehyde (MDA), a major product of lipid peroxidation was assayed in lenses according to Ohkawa et al (1979), Analytical Biochem 95, 351-358).

db/db mice [3] = assay: Antidiabetic effects in db/db mice, second experiment, 8 weeks of treatment; type: in vivo
From the text: (§1) Blood samples were obtained via the retro-orbital sinus for serum chemistry analysis, or via the tail vein for glucose measurement with a test strip and glucometer.
Groups consisted of 6-8 mice each.

db/db mice [4] = assay: Antidiabetic effects in db/db mice, 2 weeks (Example J); type: in vivo, C57BL/Ksola mice
From the text: (§2) db/db mice have a defect in leptin signaling, leading to hyperphagia, obesity and diabetes. Moreover, unlike ob/ob mice on a C57BL/6J background, db/db mice on a C57BL/KS background undergo failure of their insulin-producing pancreatic islet cells, resulting in progression from hyperinsulinemia (associated with peripheral insulin resistance) to hypoinsulinemic diabetes.
(§3) A minimum of 7 days was allowed for adaptation after arrival.
(§4) Treatment cohorts were given daily oral doses of Vehicle (1% hydroxypropylmethylcellulose), Compounds BI, BS, BT, BU, BV or Fenofibrate for 2 weeks. At the end of the treatment period 100 μl of venous blood was withdrawn in a heparinized capillary tube from the retro-orbital sinus of db/db mice for serum chemistry analysis.

db/db mice [5] = assay: Antidiabetic effects in db/db mice, 2 weeks (Example I); type: in vivo, C57BL/Ksola mice; conditions: for Glucose / Glucose (% of Control): nonfasting; for Free Fatty Acids ± SEM / Triglycerides ± SEM: serum
From the text: as §2, with “islet β” for “islet”
as §3
as §4, with “of” for “of Vehicle”, “BO, BP, BQ” for “BS, BT, BU, BV”, “BR” for “Fenofibrate”

db/db mice [6] = assay: Antidiabetic effects in db/db mice, four weeks of daily oral dosing; type: in vivo; conditions: 100 mg/kg daily oral, four weeks
From the text: Db/db mice have a defect in leptin signaling, leading to hyperphagia, obesity and diabetes. Moreover, unlike ob/ob mice which have relatively robust islets, their insulin-producing pancreatic islet cells undergo failure during chronic hyperglycemia, so that they transition from hyperinsulinemia (associated with peripheral insulin resistance) to hypoinsulinemic diabetes.
as §1, with “Male db/db mice were given daily oral treatments with vehicle (0.75% hydroxypropylmethylcellulose) or antidiabetic compounds as indicated below. Blood” for “Blood”
The dose of pioglitazone used in this experiment was reported in the literature to be a maximally-effective dose for treatment of db/db mice (Shimaya et al. (2000), Metabolism 49:411-7).

ob/ob mice = assay: Hyperglycemia, hyperlipidemia, fatty liver disease and weight gain in ob/ob obese diabetic mice, daily oral dosing; type: in vivo, C57BL/6 mice; conditions: for Free Fatty Acids ± SEM / Glucose ± SEM / Triglycerides ± SEM / ALT (U/L) ± SEM / AST (U/L) ± SEM / SDH (U/L) ± SEM: 4 weeks; for Mean body weight gain (grams): four week treatment period; for ALT (U/L) ± SEM / AST (U/L) ± SEM / SDH (U/L) ± SEM: serum
From the text: Ob/ob mice have a defect in the gene for leptin, a protein involved in appetite regulation and energy metabolism, and are hyperphagic, obese, and insulin resistant. They develop hyperglycemia and fatty liver.

[7] = test system: mice with lethal insulin-dependent diabetes; assay: Survival of mice with lethal insulin-dependent diabetes (single dose streptozotocin); type: in vivo, Balb/C mice; conditions: 30 mg/kg/day oral gavage
Method: Female Balb/C mice (14 weeks old) were treated with a single dose of streptozotocin (175 mg/kg i.p.) to induce severe insulin-dependent diabetes. Seven days later, mice were divided into three treatment groups: Compound AH, pioglitazone, and vehicle. Mice were treated daily via oral gavage, and survival was monitored over time.

[8] = 150 mg/kg, 8 weeks of treatment
[9] = nonfasting, 100 mg/kg daily oral
[10] = serum, daily oral, dose per Table 12: 100 mg/kg

## Cc1cccc(C)c1COc1cccc(C(=O)CCC(=O)O)c1 [Compound BI, 4-(3-(2,6-Dimethylbenzyloxy)phenyl)-4-oxobutyric acid]
[1]; 10 mg/kg oral gavage
  Free Fatty Acids: 1227 ± 193.7 µmol/L
  Triglycerides: 68.8 ± 5.7 mg/dL
[1]; 30 mg/kg oral gavage
  Free Fatty Acids: 1292 ± 231.4 µmol/L
  Triglycerides: 66.5 ± 14.7 mg/dL
[1]; 100 mg/kg oral gavage
  Free Fatty Acids: 992.8 ± 172.1 µmol/L
  Triglycerides: 37.4 ± 8.3 mg/dL
[1]; oral gavage
  serum triglycerides and free fatty acids: effective at lowering
[1]; oral gavage, after 4 weeks of drug treatments (FIG. 1)
  insulin serum levels: effective at lowering
[1]; oral gavage, after 4 weeks of drug treatments (FIG. 2)
  leptin serum levels: effective at lowering
[2]
  % Protection Left Eye: 50%
  % Protection Right Eye: 83%
  Cataract Formation Left Eye: 3/6
  Cataract Formation Right Eye: 1/6
[2]; means ± SEM
  Lenticular MDA: 0.8 ± 0.1 nmol/g lens
  Size (mm) Left Lens: 3.4 ± 0.2 mm
  Size (mm) Right Lens: 3.8 ± 0.1 mm
  Weight (mg) Left Lens: 38.1 ± 7.3 mg
  Weight (mg) Right Lens: 54.9 ± 1.2 mg
db/db mice [3]; [8]
  Glucose: 254 ± 30 mg/dL
  Triglycerides: 99 ± 8 mg/dL
db/db mice [3]; after 8 weeks of treatment
  blood glucose and triglycerides compared to vehicle-treated controls: significantly lower
db/db mice [4]; [9]
  Glucose: 347.0 ± 43.1 mg/dL
  Glucose (% of Control): 50 ± 6 % of Control
db/db mice [4]; [10]
  Free Fatty Acids ± SEM: 1997.2 ± 196.4 µM
  Triglycerides ± SEM: 77.8 ± 5.3 mg/dL
db/db mice [5]; 100 mg/kg daily oral
  Glucose: 423 ± 53 mg/dL
  Glucose (% of Control): 67 ± 8 % of Control
  Free Fatty Acids ± SEM: 2999.9 ± 98.7 µM
  Triglycerides ± SEM: 134.0 ± 13.1 mg/dL
db/db mice [5]; 150 mg/kg daily oral
  Glucose: 279 ± 35 mg/dL
  Glucose (% of Control): 44 ± 6 % of Control
  Free Fatty Acids ± SEM: 2234.0 ± 162.6 µM
  Triglycerides ± SEM: 103.6 ± 8.3 mg/dL

## CCc1ccc(CCOc2ccc(CC3SC(=O)NC3=O)cc2)nc1 (stereo not drawn) [Pioglitazone, pioglitazone, reference compound]
db/db mice [6]
  Glucose: 558 ± 28 mg/dL
  Glucose (% of Control): 99 ± 5 % of Control
ob/ob mice; 30 mg/kg/day oral
  Free Fatty Acids ± SEM: 2606 ± 139.2 µmol/L
  Glucose ± SEM: 188.2 ± 21.4 mg/dL
  Triglycerides ± SEM: 111.2 ± 7.5 mg/dL
  ALT (U/L) ± SEM: 713.6 ± 80.6 U/L
  AST (U/L) ± SEM: 1024 ± 88.7 U/L
  SDH (U/L) ± SEM: 782.0 ± 70.6 U/L
ob/ob mice; 30 mg/kg/day
  Mean body weight gain (grams): +10.0 grams
ob/ob mice; 100 mg/kg/day oral
  Free Fatty Acids ± SEM: 1983.4 ± 66.1 µmol/L
  Glucose ± SEM: 174.6 ± 11.5 mg/dL
  Triglycerides ± SEM: 95.2 ± 4.8 mg/dL
  ALT (U/L) ± SEM: 646.0 ± 56.1 U/L
  AST (U/L) ± SEM: 901.0 ± 49.3 U/L
  SDH (U/L) ± SEM: 603.0 ± 27.3 U/L
ob/ob mice; 100 mg/kg/day
  Mean body weight gain (grams): +13.6 grams
[7]
  body weight lost by survivors at 12 weeks: 15-20%
[7]; STZ 175 mg/kg i.p. Balb/C mice
  Survivors (Survival at 12 weeks): 2/5
